Data set [1] relates to P. falciparum Dd2. As to the kind of experiment: Primary screen: in vitro parasite growth inhibition at a single concentration, fluorescence microscopy with acridine orange. It counts as cell-based, Plasmodium falciparum. To be noted: 40 μg/mL, 48 h, Dd2 chloroquine-resistant strain; for inhibition at 40 µg/mL: Plasmodium falciparum. From the text:
(§1) Two Plasmodium falciparum parasite strains were obtained from MR4 (Manassas, Virginia, USA) and stored in liquid nitrogen. The 3D7 (MRA-102) strain is chloroquine- sensitive while Dd2 is a multidrug resistant clone of the W2 strain with resistance to chloroquine, quinine, mefloquine, sulfadoxine and pyrimethamine. Parasite stocks were thawed, grown and maintained in continuous culture by the candle jar technique with some modifications. The culture consisted of 4% hematocrit suspension of human O+ erythrocytes in RPMI-1640 medium (10.43 g/L supplemented with 0.01 mg/mL gentamycin, 25 mM Hepes buffer, 25 mM NaHCO3) and 5 g Albumax II. All culture reagents were obtained from Sigma-Aldrich Inc. (Germany) except for Albumax II (Gibco; Invitrogen, USA). Cultures were incubated at 37 °C in 5% CO2.
A primary screen for antiplasmodial activity at a single concentration was performed against Dd2 as described with some modifications, to identify active compounds. Stock solutions of compound (1 mg/mL) was initially dissolved in dimethylsulfoxide (DMSO), then gentamycin-free incomplete medium (without Albumax II) added giving 2% final DMSO; the solutions were sterilized and stored. The positive control solutions (artemether and quinine at 5 μg/mL) were prepared similarly. The compounds were tested at a final concentration of 40 μg/mL in duplicate in a 96 well microtitre plate (100 μL per well), followed by 100 μL of 1% parasitized blood. Positive and negative controls (no drug) were included. The plate was incubated under the same culture conditions as above for 48 h and antiplasmodial activity determined by fluorescence microscopy (Leitz Wetzlar, Germany) with acridine orange stain at × 40 magnification under oil immersion. The number of infected erythrocytes (Ei) was counted in 20 monolayer fields (approximately 1500 cells per field) and the percentage parasitaemia was calculated using the formula:1 %parasitaemia=∑Ei/30,000×100
The percentage inhibition per concentration was then obtained using the formula below:2 percentage%inhibition=%parasitaemia of control well‐%parasitaemia of test well/%parasitaemia of control well×100

The next data set relates to P. falciparum 3D7. As to the kind of experiment: Secondary screen: parasite growth inhibition by parasite lactate dehydrogenase (pLDH) assay, 3D7. The format is cell-based, Plasmodium falciparum. Details: key to Antiplasmodial activity class on 3D7: active, IC50 < 5 μg/mL; moderately active: 5 μg/mL ≤ IC50 ≤ 10 μg/mL; weakly active: IC50 ≥ 10 μg/mL.
Description: as §1
(§2) After incubation the plate was frozen at − 20 °C for the parasite lactate dehydrogenase (pLDH) assay.
(§3) The reagent preparation and assay were done as described. The plates were subjected to 3 freeze-thaw cycles to haemolyze the red blood cells. One hundred microlitre (100 μL) of Malstat reagent was added to each required well of a fresh microtitre plate followed by 20 μL of culture. Then 25 μL of nitroblue tetrazolium/phenazine ethosulfate (NBT/PES) solution was added initiating the reaction. The plates were then incubated for an hour in the dark and optical density (OD) measured at 650 nm (Emax-Molecular Devices Corporation, California, USA).
(§4) For the parasite lactate dehydrogenase assay, the background OD of blank wells containing non parasitized red blood cells was subtracted from values of all test wells. OD values from control wells void of test compound represented the maximum pLDH activity. The OD values obtained were used to determine the IC50, and IC90 values using the software IC Method IC Estimator V1.2 [18], an online calculator of IC values. Each assay was done twice in duplicates and the 4 IC50 or CC50 values obtained were pooled together and expressed as mean IC ± S.D.

The subject of data set [2] is P. falciparum Dd2. The data set is described as follows: Secondary screen: parasite growth inhibition by parasite lactate dehydrogenase (pLDH) assay, Dd2. The format is cell-based, Plasmodium falciparum. Details: key to Antiplasmodial activity class on Dd2: active, IC50 < 5 μg/mL; moderately active: 5 μg/mL ≤ IC50 ≤ 10 μg/mL; weakly active: IC50 ≥ 10 μg/mL.
Description: as §1, §2, §3, §4

A short description of data set [3]: Cytotoxicity test, MTT/formazan assay. It counts as cell-based, monkey. To be noted: monkey, LLC-MK2 monkey kidney epithelial cells; LLC-MK2 cells, 72 h, MTT/formazan. As for the experimental part: (§5) This was done on monkey kidney epithelial cells, LLC-MK2, (ATCC, USA) as described except for use of same culture medium and conditions for P falciparum above. The cells, 10,000 in 100 μL medium per well, were cultured for 24 h to become confluent and attached to the bottom of the well and the medium replaced with 100 μL of fresh medium. […] A negative control without test substance was included. The plates were incubated for 72 h at 37 °C in 5% CO2 and cell viability were determined using microscopy to observe dead cells which appeared dark and deformed. This was followed by the MTT/formazan assay as described above with slight modification. The CC50 values (50% cytotoxic concentration) for each compound was obtained using Microsoft excel 2007. The selectivity index (SI) was calculated using the formula:3 SI=CC50onLLC‐MK2cells/IC50onP.falciparum
as §4

Data set [4] relates to LLC-MK2 monkey kidney epithelial cells. The data set is described as follows: Cytotoxicity test, MTT/formazan assay. It counts as cell-based. To be noted: for SI on 3D7: CC50 on LLC-MK2 cells/IC50 on P. falciparum 3D7; for SI on Dd2: CC50 on LLC-MK2 cells/IC50 on P. falciparum Dd2; for Mean SI: mean of the Selectivity Indices of the 3D7 and Dd2 parasite strains. Here is the method: as §5, §4

The mark [5] stands for this setting: Plasmodium falciparum, 3D7 chloroquine-sensitive strain, pLDH assay, mean ± S.D., read-out: IC50.
Where [6] appears, read: Plasmodium falciparum, 3D7 chloroquine-sensitive strain, pLDH assay, mean ± S.D., read-out: IC90.
Where [7] appears, read: Plasmodium falciparum, 3D7 strain, class by IC50, read-out: Antiplasmodial activity class on 3D7.
Setting [8] is: Plasmodium falciparum, Dd2 chloroquine-resistant strain, pLDH assay, mean ± S.D., read-out: IC50.
[9] abbreviates: Plasmodium falciparum, Dd2 chloroquine-resistant strain, pLDH assay, mean ± S.D., read-out: IC90.
Setting [10] is: Plasmodium falciparum, Dd2 strain, class by IC50, read-out: Antiplasmodial activity class on Dd2.
The mark [11] stands for this setting: 3D7 chloroquine-sensitive strain, pLDH assay, mean ± S.D.
[12] abbreviates: Dd2 chloroquine-resistant strain, pLDH assay, mean ± S.D.

In brackets after ≈: the same amount, converted by molar mass. Read-outs that look alike come from different tables or passages of the source. Where only a bound is given, the exact number is not on record here.

Broadly, the inhibition is the relative decrease from the control value, in per cent. The IC90 is the concentration needed for an effect of 90%. By CC50 is commonly meant the concentration that lowers cell viability or growth by half.

As to `Cc1ccc(CN2CCC(C(=O)c3ccc(F)cc3)CC2)cc1` [Compound 6, [1-(4-methylbenzyl)piperidin-4-yl] [4-fluorophenyl] methanone], in the data set on P. falciparum Dd2 [1], at 40 µg/mL the inhibition was 59.1%. In addition, the IC50 in the data set with P. falciparum 3D7 (setting [5]) is 13.6 ± 0.31 µg/mL (≈ 43.8 µM); in the data set with P. falciparum 3D7 (setting [7]), at least 10 µg/mL; in the data set on P. falciparum Dd2 [2] (setting [8]), 12.8 ± 3.21 µg/mL (≈ 40.9 µM); with P. falciparum Dd2 [2] (setting [10]), at least 10 µg/mL. Moreover, the concentration for an effect of 90% (IC90) with P. falciparum 3D7 (setting [6]) is 19.1 ± 2.46 µg/mL (≈ 61.3 µM); in the data set on P. falciparum Dd2 [2] (setting [9]), 37.1 ± 0.53 µg/mL (≈ 119 µM).

For the compound `OC(c1ccc(F)cc1)C1CCN(Cc2ccc(F)cc2)CC1` (stereo not shown) [Compound 7, [1-(4-fluorobenzyl)piperidin-4-yl] [4-fluorophenyl] methanol], the inhibition at 40 µg/mL with P. falciparum Dd2 [1] amounted to 81.3%. Moreover, the “Antiplasmodial activity class on 3D7” value in the data set with P. falciparum 3D7 (3D7 strain, class by IC50) was “active”. In addition, the IC50 in the data set with P. falciparum 3D7 (setting [5]) stood at 4 ± 0.67 µg/mL (≈ 12.6 µM). Besides, the concentration for an effect of 90% (IC90) in the data set on P. falciparum 3D7 (setting [6]) was 14.6 ± 1.52 µg/mL (≈ 46 µM). Besides, the “Antiplasmodial activity class on Dd2” value in the data set with P. falciparum Dd2 [2] (Dd2 strain, class by IC50) was “active”. For the same compound, in the data set on P. falciparum Dd2 [2] (setting [8]), the IC50 was 2.52 µg/mL (≈ 7.94 µM). The IC90 with P. falciparum Dd2 [2] (setting [9]) was 17.7 ± 4.34 µg/mL (≈ 55.8 µM). Half-maximal cytotoxicity in data set [3] (CC50 at 72 h) was put at 375 µg/mL (≈ 1180 µM). In data set [4], the “SI on 3D7” value was 93.67, the “SI on Dd2” value amounted to 148.34 and the “Mean SI” value is 121.01 ± 38.7.

The compound `OC(c1ccc(F)cc1)C1CCN(Cc2ccc(Cl)c(Cl)c2)CC1` (stereo not shown) [Compound 8, [1-(3,4-dichlorobenzyl)piperidin-4-yl] [4-fluorophenyl] methanol] registered an inhibition at 40 µg/mL in the data set on P. falciparum Dd2 [1] of 81.7%. In addition, in the data set on P. falciparum 3D7 (3D7 strain, class by IC50), the “Antiplasmodial activity class on 3D7” value was “active”. Further, in the data set on P. falciparum 3D7 (setting [5]), the IC50 is 4.43 ± 0.32 µg/mL (≈ 12 µM). Also, in the data set on P. falciparum 3D7 (setting [6]), the 90% effect concentration (IC90) was 13.9 ± 1.25 µg/mL (≈ 37.7 µM). In the data set on P. falciparum Dd2 [2] (Dd2 strain, class by IC50), the “Antiplasmodial activity class on Dd2” value is recorded as “active”. In addition, the IC50 in the data set with P. falciparum Dd2 [2] (setting [8]) stood at 1.3 µg/mL (≈ 3.53 µM). Further, in the data set with P. falciparum Dd2 [2] (setting [9]), the IC90 is 17.3 ± 3.27 µg/mL (≈ 47.1 µM). For the same compound, the midpoint of cytotoxicity in data set [3], the CC50 at 72 h, lay at 93.8 µg/mL (≈ 255 µM). In addition, in data set [4], the “SI on 3D7” value was determined as 21.14, the “SI on Dd2” value stood at 71.67 and the “Mean SI” value amounted to 46.41 ± 35.7.

As to `O=[N+]([O-])c1ccccc1CN1CCC(C(O)c2ccc(F)cc2)CC1` (stereo not shown) [Compound 10, [1-(2-nitrobenzyl)piperidin-4-yl] [4-fluorophenyl] methanol], the inhibition at 40 µg/mL in the data set with P. falciparum Dd2 [1] was 79.7%. The IC50 is 13.5 ± 0.54 µg/mL (≈ 39.3 µM) with P. falciparum 3D7 (setting [5]), at least 10 µg/mL with P. falciparum 3D7 (setting [7]), 14 ± 1.76 µg/mL (≈ 40.6 µM) with P. falciparum Dd2 [2] (setting [8]) and at least 10 µg/mL in the data set with P. falciparum Dd2 [2] (setting [10]). The IC90 in the data set with P. falciparum 3D7 (setting [6]) stood at 19.11 ± 0.02 µg/mL (≈ 55.5 µM); in the data set on P. falciparum Dd2 [2] (setting [9]), 35.3 ± 2.02 µg/mL (≈ 102 µM).

Regarding `C=C[C@H]1C[N@@]2CC[C@H]1C[C@H]2[C@H](O)c1ccnc2ccc(OC)cc12` [QN, quinine, reference compound], the values for the IC50 in the data set with P. falciparum 3D7 (setting [5]) and in the data set on P. falciparum Dd2 [2] (setting [8]) were 0.171 µg/mL (≈ 0.527 µM) and 0.127 µg/mL (≈ 0.391 µM), respectively.

Turning to “N-{[1-(4-bromobenzyl) piperidin-4-yl] [4-fluorophenyl] methyl}-3-bromobenzylamine [Compound 14]”, in the data set on P. falciparum Dd2 [1], the “Inhibition (%) of P. falciparum Dd2 growth” value is reported as 86.0%. At P. falciparum 3D7 (setting [11]), this compound came in with an IC50 of 2.28 ± 0.64 µg/mL and an IC90 of 11.31 ± 3.50 µg/mL. For the same compound, the “Antiplasmodial activity class on 3D7” value in the data set on P. falciparum 3D7 (3D7 strain, class by IC50) is listed as “active”. Further, at P. falciparum Dd2 [2] (setting [12]), the IC50 stood at 2.57 ± 1.64 µg/mL and the IC90 stood at 16.21 ± 0.35 µg/mL. The “Antiplasmodial activity class on Dd2” value with P. falciparum Dd2 [2] (Dd2 strain, class by IC50) is given as “active”. In addition, the “SI on 3D7” value in data set [4] worked out at 163.
